According to ChEMBL document CHEMBL1201862, “PubChem BioAssay data set” (2004):
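Five compound concentrations were applied to cells in 96-well plates for 48 hours; endpoints were derived by simple linear interpolation of the resulting dose-response curve. GI50 = concentration required for 50% inhibition of growth.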 The source made the active and inactive calls. Cut-off read from the data, not from the text of the source: active = GI50 up to about 1.1 µM and inactive = higher.

Legend:
Assay in all cases: NCI tumour cell line growth inhibition, 48 h
[1] = test system: RPMI-8226
[2] = test system: BT-549
[3] = test system: OVCAR-3
[4] = test system: PC-3
[5] = test system: RXF 393
[6] = test system: SNB-19
[7] = test system: MDA-MB-231
[8] = test system: HCC 2998
[9] = test system: HOP-62
[10] = test system: NCI/ADR-RES
[11] = test system: SF-539
[12] = test system: K562
[13] = test system: U-251
[14] = test system: SN12C
[15] = test system: CCRF-CEM
[16] = test system: SK-MEL-28
[17] = test system: IGROV-1
[18] = test system: DU-145
[19] = test system: HL-60
[20] = test system: OVCAR-5
[21] = test system: HCT-15
[22] = test system: OVCAR-8
[23] = test system: SK-MEL-5
[24] = test system: ACHN
[25] = test system: EKVX
[26] = test system: MOLT-4
[27] = test system: SR
[28] = test system: 786-0
[29] = test system: UO-31
[30] = test system: SK-OV-3
[31] = test system: COLO 205
[32] = test system: LOX IMVI
[33] = test system: NCI-H460
[34] = test system: HOP-92
[35] = test system: HCT-116
[36] = test system: KM12
[37] = test system: M14
[38] = test system: Hs-578T
[39] = test system: SK-MEL-2
[40] = test system: SF-295
[41] = test system: CAKI-1
[42] = test system: NCI-H522
[43] = test system: OVCAR-4
[44] = test system: NCI-H226
[45] = test system: TK-10
[46] = test system: A498
[47] = test system: HT-29
[48] = test system: MDA-MB-435
[49] = test system: T47D
[50] = test system: UACC-62
[51] = test system: MDA-N
[52] = test system: NCI-H23
[53] = test system: SF-268
[54] = test system: UACC-257
[55] = test system: SNB-75
[56] = test system: A549
[57] = test system: SW-620
[58] = test system: MCF7

**Q.** What does the source list for `CCOC(=O)N1CCN(c2nc(C)n(-c3ccccc3)c(=S)c2C#N)CC1`?
**A.** GI50 [1]: > 62.7 µM (inactive); GI50 [2]: > 51.9 µM (inactive); GI50 [3]: > 75 µM (inactive); GI50 [4]: > 43.4 µM (inactive); GI50 [5]: > 95.9 µM (inactive); GI50 [6]: > 78.2 µM (inactive); GI50 [7]: 23.4 µM (inactive); GI50 [8]: > 100 µM (inactive); GI50 [9]: > 75.5 µM (inactive); GI50 [10]: 30 µM (inactive); GI50 [11]: > 83.4 µM (inactive); GI50 [12]: > 50 µM (inactive); GI50 [13]: 75.3 µM (inactive); GI50 [14]: > 100 µM (inactive); GI50 [15]: > 23.4 µM (inactive); GI50 [16]: 61 µM (inactive); GI50 [17]: 32.4 µM (inactive); GI50 [18]: > 90.4 µM (inactive); GI50 [19]: > 28.7 µM (inactive); GI50 [20]: > 100 µM (inactive); GI50 [21]: > 55.6 µM; GI50 [22]: 50.2 µM (inactive); GI50 [23]: > 100 µM (inactive); GI50 [24]: > 65 µM (inactive); GI50 [25]: > 82.2 µM (inactive); GI50 [26]: > 40.1 µM (inactive); GI50 [27]: > 100 µM (inactive); GI50 [28]: 42.8 µM (inactive); GI50 [29]: > 48 µM (inactive); GI50 [30]: > 82.2 µM (inactive); GI50 [31]: > 100 µM (inactive); GI50 [32]: > 61.9 µM (inactive); GI50 [33]: 52.7 µM (inactive); GI50 [34]: > 65.9 µM (inactive); GI50 [35]: > 68.2 µM (inactive); GI50 [36]: > 83.8 µM (inactive); GI50 [37]: > 91 µM (inactive); GI50 [38]: 34.3 µM (inactive); GI50 [39]: > 76.4 µM (inactive); GI50 [40]: > 66.4 µM (inactive); GI50 [41]: > 66.4 µM (inactive); GI50 [42]: > 34.9 µM (inactive); GI50 [43]: 44.1 µM (inactive); GI50 [44]: > 61.8 µM (inactive); GI50 [45]: > 81.1 µM (inactive); GI50 [46]: > 100 µM (inactive); GI50 [47]: > 100 µM (inactive); GI50 [48]: > 74.6 µM (inactive); GI50 [49]: > 100 µM (inactive); GI50 [50]: > 43.6 µM (inactive); GI50 [51]: > 50 µM (inactive); GI50 [52]: > 54 µM (inactive); GI50 [53]: 63.1 µM (inactive); GI50 [54]: > 86.9 µM (inactive); GI50 [55]: 37.2 µM (inactive); GI50 [56]: 97.9 µM (inactive); GI50 [57]: > 63.4 µM (inactive); GI50 [58]: > 48.9 µM (inactive)

**Q.** With `OC1(c2ccc(Cl)cc2)c2ccccc2-c2nc3ccccc3n21` (stereo unspecified) as the compound, how does the GI50 [1] read?
**A.** 49.3 µM (inactive)

**Q.** What about the GI50 [2] of the same compound?
**A.** > 100 µM (inactive)

**Q.** What about the GI50 [3] of the same compound?
**A.** 48.4 µM (inactive)

**Q.** What about the GI50 [4] of the same compound?
**A.** 44.3 µM (inactive)

**Q.** And the GI50 [5]?
**A.** 29.2 µM (inactive)

**Q.** And the GI50 [6]?
**A.** 51.6 µM (inactive)

**Q.** What about the GI50 [7] of the same compound?
**A.** > 100 µM (inactive)

**Q.** What about the GI50 [8] of the same compound?
**A.** 74 µM (inactive)

**Q.** And the GI50 [9]?
**A.** 37.8 µM (inactive)

**Q.** What about the GI50 [10] of the same compound?
**A.** 67.1 µM (inactive)

**Q.** And the GI50 [11]?
**A.** > 100 µM (inactive)

**Q.** And the GI50 [12]?
**A.** > 100 µM (inactive)

**Q.** What about the GI50 [13] of the same compound?
**A.** > 100 µM (inactive)

**Q.** What about the GI50 [14] of the same compound?
**A.** > 100 µM (inactive)

**Q.** What about the GI50 [15] of the same compound?
**A.** > 100 µM (inactive)

**Q.** What about the GI50 [16] of the same compound?
**A.** > 100 µM (inactive)

**Q.** What about the GI50 [17] of the same compound?
**A.** 73.5 µM (inactive)

**Q.** And the GI50 [18]?
**A.** 79.4 µM (inactive)

**Q.** What about the GI50 [19] of the same compound?
**A.** 58.9 µM (inactive)

**Q.** What about the GI50 [20] of the same compound?
**A.** > 100 µM (inactive)

**Q.** And the GI50 [21]?
**A.** > 100 µM

**Q.** And the GI50 [22]?
**A.** 82.8 µM (inactive)

**Q.** And the GI50 [23]?
**A.** > 100 µM (inactive)

**Q.** And the GI50 [24]?
**A.** > 100 µM (inactive)

**Q.** What about the GI50 [25] of the same compound?
**A.** 84.7 µM (inactive)

**Q.** And the GI50 [26]?
**A.** > 100 µM (inactive)

**Q.** What about the GI50 [27] of the same compound?
**A.** 74.5 µM (inactive)

**Q.** And the GI50 [28]?
**A.** 49.2 µM (inactive)

**Q.** And the GI50 [29]?
**A.** > 100 µM (inactive)

**Q.** And the GI50 [30]?
**A.** 49 µM (inactive)

**Q.** And the GI50 [31]?
**A.** > 100 µM (inactive)

**Q.** And the GI50 [32]?
**A.** > 100 µM (inactive)

**Q.** And the GI50 [33]?
**A.** 65.8 µM (inactive)

**Q.** And the GI50 [34]?
**A.** > 100 µM (inactive)

**Q.** And the GI50 [35]?
**A.** 90.4 µM (inactive)

**Q.** What about the GI50 [36] of the same compound?
**A.** > 100 µM (inactive)

**Q.** What about the GI50 [37] of the same compound?
**A.** > 100 µM (inactive)

**Q.** And the GI50 [38]?
**A.** > 100 µM (inactive)

**Q.** And the GI50 [39]?
**A.** 39.3 µM (inactive)

**Q.** What about the GI50 [40] of the same compound?
**A.** 97.9 µM (inactive)

**Q.** What about the GI50 [41] of the same compound?
**A.** > 100 µM (inactive)

**Q.** And the GI50 [42]?
**A.** 66.8 µM (inactive)

**Q.** And the GI50 [43]?
**A.** > 100 µM (inactive)

**Q.** And the GI50 [44]?
**A.** 45.9 µM (inactive)

**Q.** And the GI50 [45]?
**A.** > 100 µM (inactive)

**Q.** What about the GI50 [46] of the same compound?
**A.** > 100 µM (inactive)

**Q.** And the GI50 [47]?
**A.** 72.6 µM (inactive)

**Q.** What about the GI50 [48] of the same compound?
**A.** > 100 µM (inactive)

**Q.** What about the GI50 [49] of the same compound?
**A.** > 100 µM (inactive)

**Q.** And the GI50 [50]?
**A.** > 100 µM (inactive)

**Q.** And the GI50 [51]?
**A.** > 100 µM (inactive)

**Q.** What about the GI50 [52] of the same compound?
**A.** 89.3 µM (inactive)

**Q.** And the GI50 [53]?
**A.** > 100 µM (inactive)

**Q.** And the GI50 [54]?
**A.** > 100 µM (inactive)

**Q.** What about the GI50 [55] of the same compound?
**A.** > 100 µM (inactive)

**Q.** And the GI50 [56]?
**A.** 52.7 µM (inactive)

**Q.** What about the GI50 [57] of the same compound?
**A.** > 100 µM (inactive)

**Q.** What about the GI50 [58] of the same compound?
**A.** 95.3 µM (inactive)
